The subject of experiment [1] is ulcer formation induced by indomethacin (stomach). Kind of experiment: Inhibiting effect on ulcer formation induced by indomethacin (antiulcerative effect). The format is in vivo. The note with it: Rattus norvegicus, po; P.O., Wister male rats; 30 min before indomethacin 20 mg/kg p.o.; ulcer length 5 h after. As for the experimental part:
The inhibiting effect on ulcer formation induced by indomethacin was examined by using rats. Wister male rats (7 weeks old and body weight of 220 g) were abstained from food for 24 hours except giving water and then subjected to experiments.
The sample compounds to be tested were dissolved in a phosphoric acid buffer (pH 7.4) containing 0.9% NaCl and the solution was orally administered to the rats. 30 minutes after the administration, indomethacin was orally administered to the rats at a dose of 20 mg/kg. 5 hours after the administration of the indomethacin, the rats were killed and the ulcer formation in the stomach was examined by determining the length of the ulcer formation portion under a stereomicroscope. From this measurement, the inhibition of ulcer formation by the sample compounds were calculated to determine the ED values.

In experiment [2] the test system is blood platelet aggregation (ADP, PRP). Briefly: In vitro blood platelet aggregation inhibition effect. The note with it: Oryctolagus cuniculus, rabbit PRP, 10 μM ADP, 37° C., read-out: Anti-platelet aggregation effect IC50. The format is cell-based, native Japanese white male domestic rabbits. As to the method:
The in vitro blood platelet aggregation inhibition effect of the sample compounds to be tested was examined by using rabbits. That is, blood was collected from the ear vein of native Japanese white male domestic rabbits weighing 2.5 to 3.5 kg. The collected blood was 9 parts by volume per 1 part by volume of a 3.8% sodium citrate solution. The blood was centrifuged at 1000 r.p.m. for 10 minutes. The upper layer portion was separated as PRP (rich in platelet blood plasma). The lower layer portion was further centrifuged at 2800 r.p.m. for 10 minutes to divide it into two layers. The upper layer portion was separated as PPP (poor in platelet blood plasma). The number of the platelet was diluted with PPP to […]. After the adjustment, 25 μl of the sample compound was added to 250 μl of PRP, which was preincubated at a temperature of 37° C. for 2 minutes. Thereafter, 10 μM of ADP (final) was added to the preincubated PRP to record the variation of the transmittance by means of aggregometer. […]
When the activity of the sample compounds was determined, the ethanol solution was diluted with a phosphoric acid buffer (PH 7.4). The ethanol solution diluted with the buffer was left to stand at a temperature of 0° C. for 4 hours, after which the activity of the sample compounds was determined in the same manner.
The platelet aggregation inhibition was calculated by the following formula: […]

In brackets after ≈: the same amount, converted by molar mass. Where only a bound is given, the exact number is not on record here.

In experiment [1], `CCCCCC(O)/C=C/C1CCC(=O)C1SCCCCCC(=O)OC` (stereo not shown) had an ED50 of 0.3 mg/kg. The IC50 in experiment [2] was greater than 100 µg/mL.

The compound `CCCCC(O)C/C=C/[C@H]1[C@H](O)CC(=O)[C@@H]1SCCCCCC(=O)OC` (stereo partly shown) yielded an ED50 in experiment [1] of 0.01 mg/kg. Moreover, in experiment [2], the IC50 was 17 µg/mL (≈ 44 µM).
